In US8507509B2, “Saturated and insaturated bi- or tricyclic aryloxyacetamine derivatives and their use as fungicides” (Syngenta Crop Protection LLC, priority 2007, dated 2013):

Key:
[1] = tested on: Phytophthora infestans; test: whole plant or invertebrate; assay type: in vivo; conditions: in Solanum lycopersicum, foliar, 96 h, read-out: control of fungal infection, Phytophthora infestans
[2] = tested on: Septoria nodorum; test: Septoria nodorum (wheat glume blotch), wheat leaf segment assay, preventive; assay type: in vivo; conditions: Parastagonospora nodorum, foliar, 96 h; 200 ppm; wheat leaf segments; assessed four days after inoculation; read-out: control of fungal infection, Septoria nodorum
[3] = tested on: Pythium ultimum; test: Pythium ultimum (Damping off), liquid culture growth inhibition in potato dextrose broth; assay type: cell-based; conditions: Globisporangium ultimum; 20 ppm; potato dextrose broth, 24° C.; inhibition of growth determined photometrically after 48 hours; read-out: control of fungal infection, Pythium ultimum
[4] = tested on: Erysiphe graminis f.sp. tritici; test: Erysiphe graminis f.sp. tritici (wheat powdery mildew), wheat leaf segment assay, preventive; assay type: in vivo; conditions: Blumeria graminis, foliar, 96 h; 200 ppm; wheat leaf segments; assessed four days after inoculation; read-out: control of fungal infection, Etysiphe graminis f.sp. tritici
[5] = tested on: Septoria tritici; test: Septoria tritici (leaf blotch), liquid culture growth inhibition in nutrient broth; assay type: cell-based; conditions: Zymoseptoria tritici; 200 ppm; PDB broth, 24 C; inhibition of growth determined photometrically after 72 hrs; read-out: control of fungal infection, Septoria tritici
[6] = tested on: Plasmopara viticola; test: Plasmopara viticola (downy mildew of grapevine), grapevine leaf disk assay, preventive; assay type: in vivo; conditions: foliar, 168 h, 200 ppm, grapevine leaf disks, assessed seven days after inoculation, read-out: control of fungal infection, Plasmopara viticola
[7] = tested on: Fusarium culmorum; test: Fusarium culmorum (root rot), liquid culture growth inhibition in nutrient broth; assay type: cell-based; conditions: PDB broth, 24 C, inhibition of growth determined photometrically after 48 hrs, read-out: control of fungal infection, Fusarium culmorum
Procedure: Mycelia fragments or conidia suspensions of a fungus, prepared either freshly from liquid cultures of the fungus or from cryogenic storage, are directly mixed into nutrient broth. DMSO solutions of the test compound (max. 10 mg/ml) is diluted with 0.025% Tween20 by factor 50 and 10 μl of this solution is pipetted into a microtiter plate (96-well format) and the nutrient broth containing the fungal spores/mycelia fragments is then added to give an end concentration of the tested compound. The test plates are incubated at 24° C. and 96% rH in the dark. The inhibition of fungal growth is determined photometrically after 2-6 days and antifungal activity is calculated.
Fusarium culmorum (root rot): Conidia of the fungus from cryogenic storage were directly mixed into nutrient broth (PDB potato dextrose broth). After placing a (DMSO) solution of the test compounds into a microtiter plate (96-well format) the nutrient broth containing the fungal spores was added. The test plates were incubated at 24 C and the inhibition of growth was determined photometrically after 48 hrs.

C#CCON=CC(C)(C)NC(=O)C(Oc1ccc2ncc(Br)cc2c1)SC (centres unmarked) [Compound No. 17, 2-(3-Bromo-quinolin-6-yloxy)-N-(1,1-dimethyl-2-prop-2-ynyloxyimino-ethyl)-2-methylsulfanyl-acetamide]
≥ 60%: pest or weed control at 200 ppm [1] | pest or weed control at 200 ppm [2] | inhibition of growth at 20 ppm [3] | pest or weed control at 200 ppm [4] | inhibition of growth at 200 ppm [5] | pest or weed control at 200 ppm [6]

CON=CC(C)(C)NC(=O)C(Oc1cc(Br)c2ncc(Br)cc2c1)SC (centres unmarked) [Compound No. 34, 2-(3,8-Dibromo-quinolin-6-yloxy)-N-(2-methoxyimino-1,1-dimethyl-ethyl)-2-methylsulfanyl-acetamide]
≥ 60%: pest or weed control at 200 ppm [2] | inhibition of growth at 200 ppm [5]

C#Cc1cnc2ccc(OC(SC)C(=O)NC(C)(C)C=NOC)cc2c1 (centres unmarked) [Compound No. 38, 2-(3-Ethynyl-quinolin-6-yloxy)-N-(2-methoxyimino-1,1-dimethyl-ethyl)-2-methylsulfanyl-acetamide]
≥ 60%: pest or weed control at 200 ppm [1] | pest or weed control at 200 ppm [2] | pest or weed control at 200 ppm [4] | inhibition of growth at 200 ppm [5] | pest or weed control at 200 ppm [6]

CCON=CC(C)(C)NC(=O)C(Oc1cc(C)c2ncc(I)cc2c1)SC (centres unmarked) [Compound No. 42, N-(2-Ethoxyimino-1,1-dimethyl-ethyl)-2-(3-iodo-8-methyl-quinolin-6-yloxy)-2-methylsulfanyl-acetamide]
≥ 60%: pest or weed control at 200 ppm [1] | pest or weed control at 200 ppm [2] | pest or weed control at 200 ppm [6]

CON=CCC(C)(C)NC(=O)C(Oc1ccc2ncc(I)cc2c1)SC (centres unmarked) [Compound No. 46, 2-(3-Iodo-quinolin-6-yloxy)-N-(3-methoxyimino-1,1-dimethyl-propyl)-2-methylsulfanyl-acetamide]
≥ 60%: pest or weed control at 200 ppm [1] | pest or weed control at 200 ppm [2] | pest or weed control at 200 ppm [4] | inhibition of growth at 200 ppm [5] | pest or weed control at 200 ppm [6]

C=CCON=CC(C)(C)NC(=O)C(Oc1ccc2ncc(I)cc2c1)SC (centres unmarked) [Compound No. 52, N-(2-Allyloxyimino-1,1-dimethyl-ethyl)-2-(3-iodo-quinolin-6-yloxy)-2-methylsulfanyl-acetamide]
≥ 60%: pest or weed control at 200 ppm [1] | inhibition of growth at 200 ppm [7] | inhibition of growth at 20 ppm [3] | pest or weed control at 200 ppm [6]

COCC(C)(C=NOC)NC(=O)C(Oc1cc(C)c2ncc(Br)cc2c1)SC (centres unmarked) [Compound No. 63, 2-(3-Bromo-8-methyl-quinolin-6-yloxy)-N-(2-methoxyimino-1-methoxymethyl-1-methyl-ethyl)-2-methylsulfanyl-acetamide]
≥ 60%: pest or weed control at 200 ppm [1] | pest or weed control at 200 ppm [2] | pest or weed control at 200 ppm [4] | inhibition of growth at 200 ppm [5] | pest or weed control at 200 ppm [6]

COCC(=O)ON=CCC(C)(C)NC(=O)C(Oc1cc(C)c2ncc(I)cc2c1)SC (centres unmarked) [Compound No. 103, 2-(3-Iodo-8-methyl-quinolin-6-yloxy)-N-(3-methoxyacetoxyimino-1,1-dimethyl-propyl)-2-methylsulfanyl-acetamide]
≥ 60%: pest or weed control at 200 ppm [2] | pest or weed control at 200 ppm [4] | inhibition of growth at 200 ppm [5] | pest or weed control at 200 ppm [6]

CON=CCC(C)NC(=O)C(Oc1cc(C)c2ncc(I)cc2c1)SC (centres unmarked) [Compound No. 105, 2-(3-Iodo-8-methyl-quinolin-6-yloxy)-N-(3-methoxyimino-1-methyl-propyl)-2-methylsulfanyl-acetamide]
≥ 60%: inhibition of growth at 200 ppm [7] | inhibition of growth at 20 ppm [3] | pest or weed control at 200 ppm [4] | inhibition of growth at 200 ppm [5]

CON=C(Cc1ccsc1)C(C)(C)NC(=O)C(Oc1ccc2ncc(Br)cc2c1)SC (centres unmarked) [Compound No. 124, 2-(3-Bromo-quinolin-6-yloxy)-N-{2-[(E or Z)-methoxyimino]-1,1-dimethyl-3-thiophen-3-yl-propyl}-2-methylsulfanyl-acetamide]
≥ 60%: pest or weed control at 200 ppm [2] | inhibition of growth at 200 ppm [5]

CON=C(c1ccccc1)C(C)(C)NC(=O)C(Oc1ccc2ncc(Br)cc2c1)SC (centres unmarked) [Compound No. 130, 2-(3-Bromo-quinolin-6-yloxy)-N-{2-[(E or Z)-methoxyimino]-1,1-dimethyl-2-phenyl-ethyl}-2-methylsulfanyl-acetamide]
≥ 60%: pest or weed control at 200 ppm [1] | pest or weed control at 200 ppm [2] | inhibition of growth at 20 ppm [3] | pest or weed control at 200 ppm [4] | inhibition of growth at 200 ppm [5] | pest or weed control at 200 ppm [6]

C#Cc1cnc2ccc(OC(CC)C(=O)NC(C)(C)C=NOC)cc2c1 (centres unmarked) [Compound No. 131, 2-(3-Ethynyl-quinolin-6-yloxy)-N-(2-methoxyimino-1,1-dimethyl-ethyl)-butyramide]
≥ 60%: pest or weed control at 200 ppm [1] | pest or weed control at 200 ppm [2] | inhibition of growth at 20 ppm [3] | pest or weed control at 200 ppm [4] | inhibition of growth at 200 ppm [5] | pest or weed control at 200 ppm [6]

C#Cc1cnc2c(C)cc(OC(CC)C(=O)NC(C)(C)C=NOC)cc2c1 (centres unmarked) [Compound No. 132, 2-(3-Ethynyl-8-methyl-quinolin-6-yloxy)-N-(2-methoxyimino-1,1-dimethyl-ethyl)-butyramide]
≥ 60%: pest or weed control at 200 ppm [1] | pest or weed control at 200 ppm [2] | inhibition of growth at 20 ppm [3] | pest or weed control at 200 ppm [4] | inhibition of growth at 200 ppm [5] | pest or weed control at 200 ppm [6]

CSC(Oc1ccc2ncc(Br)cc2c1)C(=O)NC(C)(C)C=NOCC#N (centres unmarked) [Compound No. 140, 2-(3-Bromo-quinolin-6-yloxy)-N-(2-cyanomethoxyimino-1,1-dimethyl-ethyl)-2-methylsulfanyl-acetamide]
≥ 60%: pest or weed control at 200 ppm [1] | inhibition of growth at 20 ppm [3] | pest or weed control at 200 ppm [4] | inhibition of growth at 200 ppm [5] | pest or weed control at 200 ppm [6]

CSC(Oc1ccc2ncc(Br)cc2c1)C(=O)NC(C)(C)C=NOCC1CCCO1 (centres unmarked) [Compound No. 143, 2-(3-Bromo-quinolin-6-yloxy)-N-[1,1-dimethyl-2-(tetrahydro-furan-2-ylmethoxyimino)-ethyl]-2-methylsulfanyl-acetamide]
≥ 60%: pest or weed control at 200 ppm [1] | inhibition of growth at 20 ppm [3] | pest or weed control at 200 ppm [4] | inhibition of growth at 200 ppm [5] | pest or weed control at 200 ppm [6]

CCC(Oc1ccc2ncc(Br)cc2c1)C(=O)NC(C)(C)C=NOCCF (centres unmarked) [Compound No. 151, 2-(3-Bromo-quinolin-6-yloxy)-N-[2-(2-fluoro-ethoxyimino)-1,1-dimethyl-ethyl]-butyramide]
≥ 60%: pest or weed control at 200 ppm [1] | inhibition of growth at 20 ppm [3] | pest or weed control at 200 ppm [4] | inhibition of growth at 200 ppm [5] | pest or weed control at 200 ppm [6]

CCC(Oc1ccc2ncc(I)cc2c1)C(=O)NC(C)(C)C=NO (centres unmarked) [Compound No. 152, N-(2-Hydroxyimino-1,1-dimethyl-ethyl)-2-(3-iodo-quinolin-6-yloxy)-butyramide]
≥ 60%: pest or weed control at 200 ppm [1] | inhibition of growth at 20 ppm [3] | pest or weed control at 200 ppm [4] | inhibition of growth at 200 ppm [5] | pest or weed control at 200 ppm [6]

CCC(Oc1cc2cc(Br)cnc2cc1F)C(=O)NC(C)(C)C=NOC (centres unmarked) [Compound No. 154, 2-(3-Bromo-7-fluoro-quinolin-6-yloxy)-N-(2-methoxyimino-1,1-dimethyl-ethyl)-butyramide]
≥ 60%: pest or weed control at 200 ppm [1] | pest or weed control at 200 ppm [2] | pest or weed control at 200 ppm [4] | inhibition of growth at 200 ppm [5] | pest or weed control at 200 ppm [6]
